In article PMC7064328 (Environmental Health Perspectives, 2020):
Several values for one entry are separate records, joined by “and”; a condition that tells them apart may be missing. Equal entries are not always repeated. Where two headings read alike, the source gives them in different places.

Tests used:
[1] = parameters: method as in Gannon et al. 2016; details: mice; ref Gannon et al. 2016; cited from earlier work
[2] = tested on: CD-1 mice; details: cited from earlier work
[3] = tested on: rats; details: ref Conley et al. 2019, cited from earlier work
[4] = Maternal indices: dam body weight, gestational weight gain, liver and kidney weight after daily oral gavage E1.5 to E11.5 or E17.5; assay type: in vivo, mouse (CD-1); details: female, CD-1, mouse, in vivo, oral; dam systemic toxicity: liver alterations, higher GWG, placental lesions; read-out: Lowest dose group evaluated, with significant adverse effects (no NOAEL reportable)
Protocol: (§1) Naïve female CD-1 mice between 7.5 and 15.5 wk of age from the NIEHS colony were bred in-house on a single night, and copulatory plug–positive females were identified on embryonic day (E) 0.5. Pregnant dams were singly housed in ventilated polypropylene cages and received nesting materials, National Institutes of Health (NIH)-31 diet (Zeigler Bros., Inc.) and reverse osmosis deionized (RODI) water ad libitum. Animals were housed in humidity- and temperature-controlled rooms with 25°C and 45–60% average humidity and standard 12-h light cycles. All animal procedures were approved by the NIEHS Animal Care and Use Committee (ASP #2017-0022).
(§2) PFOA and GenX dosing solutions were prepared in RODI water and administered to mice once daily via oral gavage. Daily doses were administered between 0700 and 0800 hours and adjusted to the BW of the mouse based on the previous day’s weight at a volume of 0.01mL/g BW. […] The dose of 1mg/kg BW/d PFOA, used in the mouse developmental toxicity study of [Lau et al. 2006], provided a lowest effect dose that was used to set the reference dose within the U.S. EPA’s drinking water lifetime health advisory level (HAL) of 70 ppt PFOA ([U.S. EPA 2016]).
(§3) This experiment was conducted over two blocks (Block 1 and Block 2) to achieve a total of n=11–13 litters per treatment group and sacrifice time point (E11.5 and E17.5). The experimental design of the second block was identical to the first block of the study, and experimental methods were similar but expanded upon to include more rigorous and detailed measurements. Copulatory plug–positive mice (E0.5) were weighed to obtain a baseline BW and placed into one of five groups. Once all mice were assigned to groups, mean BWs were calculated, and a few animals were reassigned so that mean BWs in each group were similar. This was done to avoid confounding effects of baseline BW. Treatment groups were then randomly assigned a color by using a random sequence generator. Experimenters and dosing technicians were blinded to the treatment group to which the color groups corresponded throughout the duration of the study, including at necropsy. […] Pregnant dams were dosed via oral gavage from E1.5 to E11.5 or from E1.5 to E17.5. […] The E11.5 early-gestation time point was selected because it overlaps a critical period of placental development in the mouse where the placenta undergoes vascularization with the uterine wall and chorioallantoic branching of vessels begins ([Watson and Cross 2005]). The E17.5 late-gestation time point was selected so that embryo weight changes that may be related to treatment would be evident.
(§4) On the day of necropsy, dams received daily oral gavage between 0700 and 0800 hours and were weighed and then euthanized humanely by swift decapitation, and serum was collected. In Block 1, necropsies were completed from 0800 to 1600 hours, and in Block 2, necropsies were completed from 0800 to 1200 hours. Serum from dams euthanized in Block 1 was snap frozen for internal dosimetry analyses. Serum and urine from Block 2 dams were reserved for clinical chemistry analyses. In both blocks, the uterus was removed, and total implantation sites were counted based on gross observation of an implantation nodule along the uterine horn. Viable embryos, nonviable embryos, and sites of resorption were counted based on gross observation. Embryos were considered viable if they were properly formed, were not pale in color, and were of similar size to neighboring embryos. Embryos that were poorly formed and pale in color (without heartbeat) were considered nonviable. Sites of resorption were defined as a dark red–appearing clot-like nodule apparent on gross observation.
(§5) From each uterus, first, viable embryos and their matched placentas were collected in succession within a horn and immediately snap frozen ( n=2–5 per litter ), and subsequent embryos were collected for growth measurements ( n=2–11 per litter ). […]

[5] = tested on: Pregnant CD-1 mice; assay: as above; assay type: in vivo, mouse (CD-1); details: for E0.5 weight: baseline; for Relative GWG, E11.5 estimate (95% CI) / Relative GWG, E17.5 Estimate (95% CI) / Relative GWG, E11.5 Estimate (95% CI) relative to VC: adjusted for litter size
Protocol: as §1, §2, §3, §4, §5

[6] = parameters: method as in Gannon et al. 2016; details: rats; ref Gannon et al. 2016; cited from earlier work
[7] = parameters: method as in Olsen et al. 2007; details: ref Olsen et al. 2007; cited from earlier work
[8] = tested on: humans; parameters: method as in Johnson et al. 2014; details: meta-analysis; ref Johnson et al. 2014; cited from earlier work
[9] = tested on: mice; parameters: method as in Koustas et al. 2014; details: pregnant dams; meta-analysis; ref Koustas et al. 2014; cited from earlier work

In the case of N.O=C(O)C(F)(OC(F)(F)C(F)(F)C(F)(F)F)C(F)(F)F (stereo not shown) [GenX, ammonium 2,3,3,3-tetrafluoro-2-(heptafluoropropoxy)propanoate], the Elimination half-life [1] is given as about 20 h, the Dam plasma concentration ([2]; 5 mg/kg/d on lactation day 21, ref DuPont-18,405-1,037) is given as 36.4 µg/mL and the “NOAEL for reproductive toxicity and maternal systemic toxicity” value ([2]; microscopic changes in maternal liver, ref DuPont-18,405-1,037 (Edwards 2010b)) is given as 5 mg/kg/day. The “LOAEL, disrupted maternal lipids” value ([3]; gestational exposure) was 125 mg/kg/day, the “LOAEL, disrupted maternal thyroid hormone” value ([3]; gestational exposure) was 30 mg/kg/day and the “LOAEL, lower BWs in gestationally exposed female offspring” value [3] was 125 mg/kg/day. For the same compound, the LOAEL [4] was 2 mg/kg/day, the Kidney weight ([5]; E11.5, 2 mg/kg/d) was 0.22 ± 0.02 g and the Liver weight ([5]; E11.5, 2 mg/kg/d) was 3.1 ± 0.2 g. The Weight at necropsy ([5]; E11.5, 2 mg/kg/d) was 38.3 ± 3.2 g, the “Weight at necropsy (% change from E0.5)” value ([5]; E11.5, 2 mg/kg/d) was 28.9±5.4% and the Kidney weight ([5]; E11.5, 10 mg/kg/d) was 0.23 ± 0.06 g. The Liver weight ([5]; E11.5, 10 mg/kg/d) was 4.2 ± 0.5 g, the Weight at necropsy ([5]; E11.5, 10 mg/kg/d) was 40.0 ± 2.5 g and the “Weight at necropsy (% change from E0.5)” value ([5]; E11.5, 10 mg/kg/d) was 32.3±9.6 %. For the same compound, the E0.5 weight ([5]; E11.5 group, 2 mg/kg/d) was 29.7 ± 2.2 g, the E0.5 weight ([5]; E11.5 group, 10 mg/kg/d) was 30.7 ± 2.5 g and the Kidney weight ([5]; E17.5, 2 mg/kg/d) was 0.21 ± 0.02 g. For the same compound, the Liver weight ([5]; E17.5, 2 mg/kg/d) was 3.5 ± 0.5 g, the Weight at necropsy ([5]; E17.5, 2 mg/kg/d) was 55.4 ± 6.5 g and the “Weight at necropsy (% change from E0.5)” value ([5]; E17.5, 2 mg/kg/d) was 97.3±15.2%. For the same compound, the Kidney weight ([5]; E17.5, 10 mg/kg/d) was 0.25 ± 0.02 g, the Liver weight ([5]; E17.5, 10 mg/kg/d) was 4.6 ± 0.4 g and the Weight at necropsy ([5]; E17.5, 10 mg/kg/d) was 56.7 ± 5.5 g. For the same compound, the “Weight at necropsy (% change from E0.5)” value ([5]; E17.5, 10 mg/kg/d) was 98.5±15.7%, the E0.5 weight ([5]; E17.5 group, 2 mg/kg/d) was 28.2 ± 3.5 g and the E0.5 weight ([5]; E17.5 group, 10 mg/kg/d) was 28.7 ± 3.6 g. The Elimination half-life [6] was about 5 h.
For O=C(O)C(F)(F)C(F)(F)C(F)(F)C(F)(F)C(F)(F)C(F)(F)C(F)(F)F [PFOA, Perfluorooctanoic acid], the Human half-life [7] is listed as about 3.5 y, the “Shift in birth weight per 1-ng/mL increase in serum PFOA” value [8] is listed as -18.9 g and the “Shift in pup birth weight per 1-mg/kg BW/d increase in PFOA dose” value [9] is listed as -0.023 g. It also gave a Kidney weight ([5]; E11.5, 1 mg/kg/d) of 0.20 ± 0.02 g, a Liver weight ([5]; E11.5, 1 mg/kg/d) of 2.9 ± 0.2 g and a Relative kidney weight ([5]; E11.5, 1 mg/kg/d) of 0.51±0.04 % BW. For the same compound, the Relative liver weight ([5]; E11.5, 1 mg/kg/d) was 7.4±0.5 % BW, the Weight at necropsy ([5]; E11.5, 1 mg/kg/d) was 38.8 ± 2.4 g and the “Weight at necropsy (% change from E0.5)” value ([5]; E11.5, 1 mg/kg/d) was 24.7±6.3%. The Kidney weight ([5]; E11.5, 5 mg/kg/d) was 0.21 ± 0.03 g, the Liver weight ([5]; E11.5, 5 mg/kg/d) was 4.5 ± 0.5 g and the Relative kidney weight ([5]; E11.5, 5 mg/kg/d) was 0.51±0.05 % BW. For the same compound, the Relative liver weight ([5]; E11.5, 5 mg/kg/d) was 11.0±0.9 % BW, the Weight at necropsy ([5]; E11.5, 5 mg/kg/d) was 40.2 ± 3.5 g and the “Weight at necropsy (% change from E0.5)” value ([5]; E11.5, 5 mg/kg/d) was 29.6±6.3%. For the same compound, the E0.5 weight ([5]; E11.5 group, 1 mg/kg/d) was 31.2 ± 3 g, the E0.5 weight ([5]; E11.5 group, 5 mg/kg/d) was 31.1 ± 3.2 g and the Kidney weight ([5]; E17.5, 1 mg/kg/d) was 0.22 ± 0.04 g. For the same compound, the Liver weight ([5]; E17.5, 1 mg/kg/d) was 3.1 ± 0.4 g, the Relative kidney weight ([5]; E17.5, 1 mg/kg/d) was 0.40±0.04 % BW and the Relative liver weight ([5]; E17.5, 1 mg/kg/d) was 5.6±0.5 % BW. For the same compound, the Weight at necropsy ([5]; E17.5, 1 mg/kg/d) was 54.6 ± 5.3 g, the “Weight at necropsy (% change from E0.5)” value ([5]; E17.5, 1 mg/kg/d) was 92.6±17.1% and the Kidney weight ([5]; E17.5, 5 mg/kg/d) was 0.24 ± 0.03 g. The Liver weight ([5]; E17.5, 5 mg/kg/d) was 5.3 ± 0.5 g, the Relative kidney weight ([5]; E17.5, 5 mg/kg/d) was 0.40±0.03 % BW and the Relative liver weight ([5]; E17.5, 5 mg/kg/d) was 9.3±0.7 % BW. The Weight at necropsy ([5]; E17.5, 5 mg/kg/d) was 57.4 ± 6.0 g, the “Weight at necropsy (% change from E0.5)” value ([5]; E17.5, 5 mg/kg/d) was 98.7±20.2% and the E0.5 weight ([5]; E17.5 group, 1 mg/kg/d) was 28.5 ± 3.8 g. For the same compound, the E0.5 weight ([5]; E17.5 group, 5 mg/kg/d) was 29.1 ± 3.4 g, the “Relative GWG, E11.5 estimate (95% CI)” value ([5]; 1 mg/kg/d) was 16.2 (-0.2, 32.5) % gain from embryonic day 0.5 and the “Relative GWG, E17.5 Estimate (95% CI)” value ([5]; 1 mg/kg/d) was 44.9 (6.5, 83.3) % gain from embryonic day 0.5. For the same compound, the “Relative GWG, E11.5 Estimate (95% CI) relative to VC” value ([5]; 5 mg/kg/d) was 4.3 (-1.8, 10.5) % gain from embryonic day 0.5, the “Relative GWG, E11.5 estimate (95% CI)” value ([5]; 5 mg/kg/d) was 21.6 (5.4, 37.9) % gain from embryonic day 0.5 and the “Relative GWG, E17.5 Estimate (95% CI)” value ([5]; 5 mg/kg/d) was 50.7 (12.2, 89.0) % gain from embryonic day 0.5. For the same compound, the “Relative GWG, E11.5 Estimate (95% CI) relative to VC” value ([5]; 5 mg/kg/d, 5 mg/kg/day) was 14.5 (1.4, 27.5) % gain from embryonic day 0.5 and 14.5 % gain from embryonic day 0.5, the “Relative GWG, E11.5 Estimate (95% CI) relative to VC” value ([5]; fourth column (after E17.5 estimate), 1 mg/kg/d) was 8.7 (-4.3, 21.8) % gain from embryonic day 0.5 and the “Relative GWG, E11.5 Estimate (95% CI) relative to VC” value ([5]; second column, 1 mg/kg/d) was -1.1 (-7.4, 5.1) % gain from embryonic day 0.5.
